From US10022394B2, “Antiinfective composition” (priority 2011, dated 2018)

System: viruses
Assay: in vitro virucidal action
Details: as the degree of hydroxymethylation increases

In the case of hydroxymethyl-hyaluronic acid, the virucidal action is reported as “increased”.
